Experimental data reported in patent publication USRE29244E, “Coccidiostats” (priority 1976, dated 1977).
Counter-ions that a name gives are not always drawn. Like-named read-outs stand apart in the source and are kept apart here.

What was measured:
Toxic dosage in mice = type: in vivo; details: for MTD: mouse, in vivo, read-out: Tolerated dose
From the text: The toxic dosage of the antibiotic as tested in mice and designated as the lethal dose is as follows: […]

Gram-negatives = test: Antimicrobial spectrum, plate assay; type: cell-based; details: Gram-negatives: Pseudomonas acruginosa, Aerobacillus polymyxa, Escherichia coli
From the text: (§1) The following table summarizes the antimicrobial spectrum of antibiotic X-537A:
(§2) Antimicrobial spectrum of antibiotic X-537A
(§3) Test organism: Plate units per mg.
*These were Pseudomonas acruginosa, Aerobacillus polymyxa and Escherichia
(§4) The antibiotic can be prepared by growing the Streptomyces organisms in an aerated submerged culture. This can be done in either a shaken flask or in 50-1,000 gallon stainless steel and iron fermentation tanks. The broths are adjusted to a pH which is about neutral, i.e., 6.5-7.5 prior to be sterilized and are then incubated at slightly elevated temperatures, e.g., about 27° to 30° C., after being inoculated with spore suspensions or vegetative growth. The reaction broth is then filtered and the active material is extracted with a suitable solvent, preferably methanol, n-butanol or butyl acetate. The antibiotic activity is followed by cup-plate agar diffusion assay in which the test organism Bacillus E is employed. In general, the concentration of antibiotic required to produce an inhibition zone of 20-22 mm. in diameter with any of the test organisms is considered to be 1 unit per ml. Whole broths are diluted for assay in 1% phosphate buffer, pH 6.0.

[1] = system: mixtures of E. tenella, E. necatrix, E. acervulina, E. brunetti, E. maxima, E. mivati; test: Multiple Eimeria infections in chickens; type: in vivo, Eimeria (mixture; in chickens); details: for Average degree of infection: <2.5 significant; for Weight gain: uninfected control 100
Method: (§5) Test method.--This test utilizes ten chickens per drug group. Ten chickens are employed as a weight control and ten chickens as an infected control. The drug is given 48 hours in advance of the infection. One gm. of the test drug is mixed in a mechanical mixer with a sufficient amount of chicken feed to result in the desired dosage. The infection consists of approximately 200,000 oocysts given orally by pipette. The tests lasts for eleven days and then the surviving birds are autopsied and examined for gross lesions in the ceca. The test birds are rated according to the number of survivors and the number of cecal lesions. The results are expressed as average degree of infection (A.D.I.). An average degree of infection of less than 2.5 is considered significant.
(B) Multiple Eimeria infections in chickens
Test method.--The test method is the same as for Eimeria tenella. The multiple Eimeria infections tested herein are mixtures of E. tenella, E. necatrix, E. acervulina, E. brunetti, E. maxima, E. mivati infections.

Bacillus mesentericus = test: Antimicrobial spectrum, plate assay; type: cell-based
Method: as §1, §2, §3, §4

Corynebacterium simplex = test: Antimicrobial spectrum, plate assay; type: cell-based
Method: as §1, §2, §3, §4

Bacillus cereus = test: Antimicrobial spectrum, plate assay; type: cell-based
Method: as §1, §2, §3, §4

Bacillus E = test: Antimicrobial spectrum, plate assay; type: cell-based
Method: as §1, §2, §3, §4

Mycobacterium phlei = test: Antimicrobial spectrum, plate assay; type: cell-based
Method: as §1, §2, §3, §4

Sarcina lutea = test: Antimicrobial spectrum, plate assay; type: cell-based
Method: as §1, §2, §3, §4

Staphylococcus aureus = test: Antimicrobial spectrum, plate assay; type: cell-based
Method: as §1, §2, §3, §4

Saccharomyces cerevisiac = test: Antimicrobial spectrum, plate assay; type: cell-based
Method: as §1, §2, §3, §4

[2] = system: Scopulariopsis brevicaulis; test: Antimicrobial spectrum, plate assay; type: cell-based
Method: as §1, §2, §3, §4

Bacillus simplex = test: Antimicrobial spectrum, plate assay; type: cell-based
Method: as §1, §2, §3, §4

Eimeria tenella = Eimeria tenella infection in laboratory chickens; type: in vivo; design: Average degree of infection: scale not given here; details: for Weight gain: uninfected control 100
Method: (A) Eimeria tanella infection in laboratory chickens
as §5

coccidiosis = test: Control of coccidiosis by medicated feed (general statements); type: in vivo, poultry (turkeys, chickens)
From the text: Thus, the compositions of this invention not only control coccidiosis, but also, aid in improving the efficiency of conversion of feed to weight gains.
Thus, for example, a feed premix or complete feed contains sufficient active ingredient to provide from about 0.001% to about 0.0125% by weight of the daily feed consumption. Preferably, about 0.00312% to 0.00625% by weight is used. Generally, about 0.005% to about 0.006% of the active ingredient is sufficient for the purpose of controlling and combating coccidiosis.
Even though amounts over 0.00625% are efficacious for combating coccidiosis, this amount is the preferred upper range because of economics, i.e., the cost per unit of effectiveness is lowest within this range. Amounts lower than 0.001% and in some cases lower than 0.003% are not effective for combating coccidiosis. Preferred is a lower limit of 0.00312% because this insures efficaciousness. The most preferred amount, i.e., about 0.005% to about 0.006% by weight of the poultry daily feed consumption is particularly efficacious since it achieves maximum effect with minimum dose. The range of the weight amounts of active antibiotic in the dried unfiltered broth solids which are efficacious for combating coccidiosis is the same as for the crystalline material or its salts. For example, when administered in feed to chicks so as to contain a dosage of 0.003% of active ingredient, the crude dried unfiltered broth results in an average degree of infection of 1.4 while at the same dosage, the sodium salt of the crystalline antibiotic results in an average degree of infection of 1.7. At a dosage equivalent to a concentration of active ingredient of 0.006%, the dried material results in an average degree of infection of 0.0 while the sodium salt of the crystalline antibiotic results in an average degree of infection of 0.2.

[3] = Continuous feeding of chicks for nine weeks; type: in vivo, chicken
From the text: At 0.025%, growth is reduced, feed conversion impaired and 25% mortality occurs.

mycobacteria = test: In vitro antibacterial activity; type: cell-based
gram-positive bacteria = test: In vitro antibacterial activity; type: cell-based
gram-negative bacteria = test: In vitro antibacterial activity; type: cell-based
[4] = Acute oral toxicity in broiler chicks; details: chicken, in vivo; oral single dose, 9- or 8-day-old chicks; limits given as 59 ±3 mg. and 84 ±7 mg.

**Q.** What does the source list for `CCC(C(=O)C(C)C(O)C(C)CCc1ccc(C)c(O)c1C(=O)O)C1OC(CC)(C2CCC(O)(CC)C(C)O2)CC1C` (centres unmarked) [antibiotic X-537A]?
**A.** Lethal dose (Toxic dosage in mice; intraperitoneal): 62.5 mg/kg; MTD (Toxic dosage in mice; ip, intraperitoneal): 50 mg/kg; MTD (Toxic dosage in mice; oral): 62.5 mg/kg; MTD (Toxic dosage in mice; sc, subcutaneous): 62.5 mg/kg; Lethal dose (Toxic dosage in mice; oral): 125 mg/kg; Lethal dose (Toxic dosage in mice; subcutaneous): 125 mg/kg; Antimicrobial activity (Gram-negatives): 0 Plate units per mg.; Percent mortality ([1]; 0.00312% in feed): 0%; Average degree of infection ([1]; 0.00312% in feed): 0.9; Weight gain ([1]; 0.00312% in feed): 105%; Percent mortality ([1]; 0.00625% in feed): 0%; Average degree of infection ([1]; 0.00625% in feed): 0.0; Weight gain ([1]; 0.00625% in feed): 108%; Efficiency of conversion of feed to weight gain ([1]; chickens): greater than expected; Effectiveness in treating multiple coccidiosis infections ([1]; in vivo): effective; Antimicrobial activity (Bacillus mesentericus): 50 Plate units per mg.; Antimicrobial activity (Corynebacterium simplex): 20 Plate units per mg.; Antimicrobial activity (Bacillus cereus): 120 Plate units per mg.; Antimicrobial activity (Bacillus E; Bacillus E): 800 Plate units per mg.; Bacillus E assay (Bacillus E; crystalline material from petroleum ether (contained sodium)): 500 E units per mg.; Bacillus E assay (Bacillus E; free acid recrystallized from ethanol): 800 E units per mg.; Antimicrobial activity (Mycobacterium phlei): 20 Plate units per mg.; Antimicrobial activity (Sarcina lutea): 500 Plate units per mg.; Antimicrobial activity (Staphylococcus aureus): 20 Plate units per mg.; Antimicrobial activity (Saccharomyces cerevisiac): 0 Plate units per mg.; Antimicrobial activity [2]: 0 Plate units per mg.; Antimicrobial activity (Bacillus simplex): 20 Plate units per mg.; Percent mortality (Eimeria tenella; Test I, 0.00312% in feed): 0%; Average degree of infection (Eimeria tenella; Test I, 0.00312% in feed, <2.5 significant): 2.2; Weight gain (Eimeria tenella; Test I, 0.00312% in feed): 85%; Percent mortality (Eimeria tenella; Test I, 0.00625% in feed): 0%; Average degree of infection (Eimeria tenella; Test I, 0.00625% in feed, <2.5 significant): 0.4; Weight gain (Eimeria tenella; Test I, 0.00625% in feed): 92%; Percent mortality (Eimeria tenella; Test II, 0.001% in feed): 15%; Average degree of infection (Eimeria tenella; Test II, 0.001% in feed, <2.5 significant): 2.8; Weight gain (Eimeria tenella; Test II, 0.001% in feed): 80%; Percent mortality (Eimeria tenella; Test II, 0.002% in feed): 15%; Average degree of infection (Eimeria tenella; Test II, 0.002% in feed, <2.5 significant): 2.6; Weight gain (Eimeria tenella; Test II, 0.002% in feed): 83%; Percent mortality (Eimeria tenella; Test II, 0.003% in feed): 5%; Average degree of infection (Eimeria tenella; Test II, 0.003% in feed, <2.5 significant): 2.2; Weight gain (Eimeria tenella; Test II, 0.003% in feed): 85%; Percent mortality (Eimeria tenella; Test II, 0.004% in feed): 15%; Average degree of infection (Eimeria tenella; Test II, 0.004% in feed, <2.5 significant): 1.7; Weight gain (Eimeria tenella; Test II, 0.004% in feed): 87%; Percent mortality (Eimeria tenella; Test II, 0.005% in feed): 5%; Average degree of infection (Eimeria tenella; Test II, 0.005% in feed, <2.5 significant): 0.8; Weight gain (Eimeria tenella; Test II, 0.005% in feed): 94%; Percent mortality (Eimeria tenella; Test II, 0.006% in feed): 0%; Average degree of infection (Eimeria tenella; Test II, 0.006% in feed, <2.5 significant): 0.1; Weight gain (Eimeria tenella; Test II, 0.006% in feed): 95%; Average degree of infection (Eimeria tenella; Test III, 0.003% in feed, <2.5 significant): 1.7; Weight gain (Eimeria tenella; Test III, 0.003% in feed): 79%; Average degree of infection (Eimeria tenella; Test III, 0.004% in feed, <2.5 significant): 1.1; Weight gain (Eimeria tenella; Test III, 0.004% in feed): 81%; Average degree of infection (Eimeria tenella; Test III, 0.005% in feed, <2.5 significant): 0.5; Weight gain (Eimeria tenella; Test III, 0.005% in feed): 98%; Average degree of infection (Eimeria tenella; Test III, 0.006% in feed, <2.5 significant): 0.2; Weight gain (Eimeria tenella; Test III, 0.006% in feed): 97%; Effectiveness in treatment of coccidiosis (Eimeria tenella; at the preferred dosages illustrated): effective; Effect on conversion of feed to weight gain (Eimeria tenella; used as a coccidiostat): does not substantially adversely affect; Effectiveness against coccidiosis (coccidiosis; amounts greater than 0.0125% of feed): effective against coccidiosis, do not generally show improved results over 0.0125%; Effect on growth, feed efficiency and mortality (coccidiosis; amounts greater than 0.0125% of feed, in some cases): may adversely affect the growth, feed efficiency and mortality; Effectiveness against coccidiosis (coccidiosis; amounts lower than 0.001% and in some cases lower than 0.003% of feed): not effective; Toxicity / untoward side effects (coccidiosis; at dosages necessary to control coccidiosis): not toxic and shows no untoward side effects; Weight of treated fowl compared to controls (coccidiosis; oral, as component of feed): either maintain their weight or actually gain weight; Control of coccidiosis (coccidiosis; oral, as component of feed, turkeys and chickens): effectively controls the disease; Feed conversion ([3]; 0.025% in feed): impaired; Growth ([3]; 0.025% in feed): reduced; mortality at 1512 h ([3]; chicken, in vivo, po, 0.025% in feed): 25%; Adverse effects on performance (growth, feed efficiency and mortality) ([3]; up to 0.0125% by weight in feed, nine weeks): no adverse effects; Activity in vitro against mycobacteria (mycobacteria): active; Activity in vitro against gram-positive bacteria (gram-positive bacteria): active; Activity in vitro against gram-negative bacteria (gram-negative bacteria): inactive

**Q.** Which LD50 [4] does the source give for `CCC(C(=O)C(C)C(O)C(C)CCc1ccc(C)c(O)c1C(=O)O)C1OC(CC)(C2CCC(O)(CC)C(C)O2)CC1C` (centres unmarked) [sodium salt of antibiotic X-537A] here?
**A.** 59 to 84 mg/kg

**Q.** And the “Average degree of infection” value (Eimeria tenella; text: 0.003% of active ingredient in feed to chicks)?
**A.** 1.7

**Q.** What about the “Average degree of infection” value (Eimeria tenella; text: 0.006% of active ingredient in feed to chicks) of the same compound?
**A.** 0.2
